Source: patent US9192599B2, “Treating inflammation and inflammatory pain in mucosa using mucosal prolonged release bioadhesive therapeutic carriers” (Onxeo S.A., priority 2008, dated 2015)
“And” between values parts separate entries of the source, which are not always exact repeats. Equal entries are not always repeated. Where two headings read alike, the source gives them in different places.

What was measured:
[1] = tested on: TNFα; assay: TNFα quantification by ELISA in human oral mucosa organotypic culture stimulated by substance P; format: cell-based
Procedure: Biopsy samples of clinically healthy non keratinised human oral mucosa were obtained from patients undergoing surgery.
Small biopsies (explant size: 5 mm^2 surface and 3 mm thickness and about 15 to 20 mg weight) were transferred onto permeable polycarbonate membrane transwells (12 mm diameter, 12 μm pore size) in a well of a 12 well plate (as previously described Boisnic S. et al., 2003 and 2006) containing 700 μl of defined medium (DMEM, antibiotics, hormones, pituitary extract, SVF). For each donor, the gingival biopsy was cut to obtain the same weight so that to have comparison between different conditions tested. Explants were maintained at the interface between air and medium: the oral mucosa epithelium was in contact with air and the chorion was exposed to the media by diffusion through the porous polycarbonate membrane.
Cohesion between gingival fragment and insert was obtained with a polyvinylsiloxane addition type silicone elastomer seal (Coltene® president) in such a way that no gingival retraction or lateral passage of the product towards the dermis was possible. The culture was set up for 2 days in a humidified atmosphere containing 5% CO2 at 37° C.
The stimulation of the experimental oral mucosa inflammatory process was done by the neuropeptide substance P (SP) (Boisnic et al., 2003).
The neuropetide SP ([SP]=10 μM) was added (or not) to the culture medium in order to simulate the mucositis pro-inflammatory process. SP was in contact with the mucosal chorion after diffusion through the porous membrane.
The cell culture lasted two days (“D0” for the first day and “D1” for the second day).
Therefore the clonidine treatment was done before and during substance P stimulation.
Removed D1 culture medium in each well; aliquot it in 7 samples of 100 μl and store at −80° C. for cytokines release analysis.
At the end of each culture all the human oral mucosa explants were weighed (cytokines release expressed as pg/mg of cultured oral mucosa explants).
Mean values and standard deviations were calculated for each parameter. The statistical significance of changes recorded in the parameters were determined with unpaired Mann-Whitney U test (p<0.05).

[2] = tested on: mucositis in hamsters; settings: for mucositis severity, daily scores vs vehicle control (Mann-Whitney rank sum): day −1 to 20; for average weight gain, % of starting weight: days −1 to 20, topical; for animal days with mucositis score of 3 or higher / peak mean mucositis score: days −1 to 20; for peak mean mucositis score: peak on day 16, scale 0-5; for course and severity of mucositis, comparison of schedules: day −1 to 20, topical
Procedure: Thirty-two (32) male Syrian Golden Hamsters were randomly assigned to four (4) equally-sized groups. […] All agents were administered topically. On study day 0, each hamster was irradiated with a single dose of 40 Gy directed to the left buccal cheek pouch. Animals were subsequently weighed and observed daily. Beginning on day 6 and continuing on alternate days for the duration of the study, images of the left cheek pouch mucosa was obtained. At the conclusion of the in-life phase of the study, the images were scored for mucositis severity using a validated scale and the number of days of ulcerative mucositis was assessed using a Chi-squared test of scores of ≧3 throughout the study. The individual daily group scores were evaluated using a rank sum test.
Mucositis was induced using a standardized acute radiation protocol. A single dose of radiation (40 Gy/dose) was administered to all animals on day 0. Radiation was generated with a 160 kilovolt potential (15-ma) source at a focal distance of 40 cm, hardened with a 0.35 mm Al filtration system. Irradiation targeted the left buccal pouch mucosa at a rate of 2.5 Gy/minute. Prior to irradiation, animals were anesthetized with an intraperitoneal injection of Ketamine (160 mg/ml) and Xylazine (8 mg/ml). The left buccal pouch was everted, fixed and isolated using a lead shield.
For the evaluation of mucositis, the animals were anesthetized with an Inhalation anesthetic, and the left pouch everted. Mucositis was scored visually by comparison to a validated photographic scale, ranging from 0 for normal, to 5 for severe ulceration (clinical scoring). In descriptive terms, this scale is defined in Table 2:
A score of 1-2 is considered to represent a mild stage of the disease, whereas a score of 3-5 is considered to indicate moderate to severe mucositis. Following visual scoring, a photograph was taken of each animal's mucosa using a standardized technique. At the conclusion of the experiment, all films were developed and the photographs randomly numbered. At least two independent trained observers graded the photographs in blinded fashion using the above-described scale (blinded scoring).
Test materials were given by topical administration directed to the left cheek pouch daily as detailed in Table 3.
to day 20. Animals in Groups 1, 3 and 4 were dosed at 6 am, 11 am, 4 pm and 9 pm. Animals in Group 2 were dosed at 6 am.
Mucositis was evaluated clinically starting on Day 6, and continuing on alternate days until day 28.

Compound: Clc1cccc(Cl)c1NC1=NCCN1 [clonidine, N-(2,6-dichlorophenyl)-4,5-dihydro-1H-imidazol-2-amine]
- anti-inflammatory effect on gingiva stimulated by SP ([1]; doses 0.009, 0.03, 0.09 and 0.3 μg/ml): No significant anti-inflammatory effect
- TNFα quantification by ELISA ([1]; gingiva + SP, 0.009 μg/ml clonidine): 1.14 ± 0.7 pg/mg
- TNFα quantification by ELISA ([1]; gingiva + SP, 0.03 μg/ml clonidine): 1.02 ± 0.4 pg/mg
- TNFα quantification by ELISA ([1]; gingiva + SP, 0.09 μg/ml clonidine): 1.08 ± 0.29 pg/mg
- TNFα quantification by ELISA ([1]; gingiva + SP, 0.3 μg/ml clonidine): 0.86 ± 0.4 pg/mg
- TNFα quantification by ELISA ([1]; gingiva + SP, 0.9 μg/ml clonidine): 0.74 pg/mg and 0.74 ± 0.36 (* p = 0.0106) pg/mg
- TNFα quantification by ELISA ([1]; gingiva + SP, 3 μg/ml clonidine): 0.67 pg/mg and 0.67 ± 0.27 (* p = 0.0056) pg/mg
- TNFα quantification by ELISA ([1]; gingiva without SP, 3 μg/ml clonidine): 0.83 ± 0.40 pg/mg
- TNFα quantification by ELISA ([1]; gingiva without SP, 3 μg/ml clonidine, listed as Clonidine): 0.83 pg/mg
- mucositis severity, daily scores vs vehicle control (Mann-Whitney rank sum) ([2]; 12.5 μg/kg 4 times daily, days 20, 22 and 24): significantly lower mucositis scores than the vehicle controls
- mucositis severity, daily scores vs vehicle control (Mann-Whitney rank sum) ([2]; 12.5 μg/kg 4 times daily, days 20, 22 and 24, listed as Clonidine): significantly reduced the severity of mucositis
- average weight gain, % of starting weight ([2]; 12.5 μg/kg 4 times daily): 46.1%
- animal days with mucositis score of 3 or higher ([2]; 12.5 μg/kg 4 times daily, p=0.047 vs vehicle): 26.0%
- peak mean mucositis score ([2]; 12.5 μg/kg 4 times daily): 3.0
- mucositis severity, daily scores vs vehicle control (Mann-Whitney rank sum) ([2]; 25 μg/kg 4 times daily, days 6 and 14): significantly lower mucositis scores than the vehicle controls
- mucositis severity, daily scores vs vehicle control (Mann-Whitney rank sum) ([2]; 25 μg/kg 4 times daily, days 6 and 14, listed as Clonidine): significantly reduced the severity of mucositis
- average weight gain, % of starting weight ([2]; 25 μg/kg 4 times daily): 45.0%
- animal days with mucositis score of 3 or higher ([2]; 25 μg/kg 4 times daily, p=0.125 vs vehicle): 28.1%
- peak mean mucositis score ([2]; 25 μg/kg 4 times daily): 3.1
- course and severity of mucositis, comparison of schedules ([2]; 100 μg/kg once daily): superior to the other concentrations and schedules tested
- course and severity of mucositis, comparison of schedules ([2]; 100 μg/kg once daily, listed as Clonidine): favorably altered the course and severity of mucositis
- mucositis severity, daily scores vs vehicle control (Mann-Whitney rank sum) ([2]; 100 μg/kg once daily, days 16, 20 and 22): significantly different than the vehicle control group
- mucositis severity, daily scores vs vehicle control (Mann-Whitney rank sum) ([2]; 100 μg/kg once daily, days 16, 20 and 22, listed as Clonidine): significantly reduced the severity of mucositis
- average weight gain, % of starting weight ([2]; 100 μg/kg once daily): 51.3%
- animal days with mucositis score of 3 or higher ([2]; 100 μg/kg once daily, p=0.003 vs vehicle): 21.9%
- peak mean mucositis score ([2]; 100 μg/kg once daily): 2.8
- severity of mucositis based on mucositis score area under the curve ([2]; all three treatment groups, p=0.0007): severity of mucositis was reduced
- adverse reaction to treatment ([2]; any of the doses tested): no evidence of any significant adverse reaction

Compound: SP: neuropeptide substance P added to culture medium to simulate the mucositis pro-inflammatory process
- TNFα quantification by ELISA ([1]; gingiva + SP 10 μM, no clonidine (positive control)): 1.7 ± 1.09 (# p = 0.0056) pg/mg
- TNFα quantification by ELISA ([1]; gingiva + SP 10 μM, no clonidine (positive control), listed as substance P): 1.7 pg/mg
